Key:
[1] = test system: 9/13-Divinylethersynthase aus Knoblauch; assay: Photometric determination of the substrate specificity of 9/13-DES; format: biochemical; settings: purified 9/13-DES; 100 µM hydroperoxide; room temperature; decrease of extinction at 234 or 236 nm over one minute
Protocol: Für die Bestimmung der Substratspezifität wurde die 9/13-Divinylethersynthase aus Knoblauch aus einer Expressionskultur aufgereinigt. Dazu wurde zunächst eine 400 ml Expressionskultur unter den schon vorher beschriebenen Bedingungen angeimpft und angezogen. Die Zellen wurden nach zweitägiger Inkubation durch 15-minütige Zentrifugation mit 4000 g bei 4°C sedimentiert. Das Sediment wurde in 20 ml 50 mM Na-Phosphat, pH 8, resuspendiert und mit Ultraschall (Sonopuls GM 70, Bandelin, Berlin) für 5-Mal eine Minute bei 50 % Leistung und 50 % Impuls aufgeschlossen. Die Zelltrümmer wurden 15 min bei 4000 x g sedimentiert und aus dem Überstand wurden durch eine weitere Zentrifugation (1 h bei 100000 x g) die Zellmembranen sedimentiert. Das Membransediment wurde für 1 h in 50 mM Na-Phosphat, pH 8, mit 1M NaCl und 0,1 % (v/v) TritonX-100 inkubiert, um die Membranproteine zu solubilisieren. Anschließend wurde erneut 1 h bei 100000 x g zentrifugiert. Der Überstand wurde mit Talon Metal Affinity Resin (Clontech, Palo Alto, USA) (200 µl Bettvolumen) über Nacht bei 4 °C geschüttelt. Danach wurde das Material auf eine Leersäule (T.J. Baker, Phillipsburg, N.J., USA) gegeben. Die Elution erfolgte mit 3 ml 50 mM Tris/HCl pH 6,3, 10 % Glycerin, 0,1 % Tween 20, 0,5 M NaCl und 0,1 M EDTA. Durch eine PD-10 Säule (Amersham pharmacia biotech, UK) wurde das Protein in 50 mM Na-Phosphat-Puffer pH 8 umgepuffert.
Das so aufgereinigte Protein wurde für die Tests im Photometer eingesetzt. Die Messungen erfolgten bei Raumtemperatur und es wurde immer bei der Wellenlänge des eingesetzten Hydroperoxids (234 bzw. 236 nm) bei einer Konzentration 100 µM für eine Minute die Abnahme der Extinktion aufgezeichnet. Die Messungen erfolgten in einer 100 µl Quarzküvette. Die Reaktion wurde durch die Zugaben von 1 µl der Proteinlösung gestartet.

9/13-DES = assay: Determination of the pH optimum of 9/13-DES (endpoint determination by normal-phase and reversed-phase HPLC); format: biochemical, Knoblauch; settings: substrate of recombinant 9/13-DES; pH 5,5 bis 8,6; no pH optimum could be determined
Protocol: Das pH-Optimum wurde mittels einer Endpunktbestimmung mit Hilfe der Normal-Phasen-HPLC und der Umkehr-Phasen-HPLC ermittelt. Es wurden sowohl 9-HPOD als auch 13-HPOD als Substrate der DES verwendet. Für die Bestimmung des pH-Optimums wurde die Umsetzung bei pH-Werten von 4,5 bis 8,5 in Schritten von 0,5 pH-Einheiten durchgeführt. Für pH 7 wurden zweimal drei Messungen durchgeführt, da für diesen pH-Wert sowohl ein 50 mM Natrium-Phosphatpuffer als auch ein 50 mM Tris/HCl-Puffer verwendet wurde. Für die Umsetzungen wurden zwischen 25 und 80 nmol der Hydroperoxide eingesetzt. Von dem einzelnen Hydroperoxid wurde dabei immer die gleiche Menge für jede Umsetzung eingesetzt. Parallel zu den Proben für den pH-Optimumstest wurden drei Ansätze mit Zelllysat des leeren Vektors in E. coli mit 13-HPOD inkubiert. Die Leervektorkontrolle zeigte keine Divinylether-Bildung, es konnte nur das Hydroperoxid nachgewiesen werden.

Row | SMILES | Substratspezifität (Umsetzung durch 9/13-DES) [1] | Umsetzung über den pH-Bereich (9/13-DES)
1 | CC/C=C\C/C=C\C=C\[C@H](CCCCCCCC(=O)O)OO [9-HPOT, (9S, 10E, 12Z, 15Z)-9-Hydroperoxy-10,12,15-Octadecatriensäure] | wesentlich weniger stark umgesetzt | 
2 | CC/C=C\C[C@@H](/C=C/C=C\CCCCCCCC(=O)O)OO [13-HPOT, (9Z, 11E, 13S, 15Z)-13-Hydroperoxy-9,11,15-Octadecatriensäure] | wesentlich weniger stark umgesetzt | 
3 | CCCCC/C=C\C=C\[C@H](CCCCCCCC(=O)O)OO [9-HPOD, (9S, 10E, 12Z)-9-Hydroperoxy-10,12-Octadecadiensäure] | in etwas geringerem Maße | gleich gut umgesetzt
4 | CCCCC[C@@H](/C=C/C=C\CCCCCCCC(=O)O)OO [13-HPOD, (13S, 9Z, 11E)-13-Hydroperoxy-9,11-Octadecadiensäure] | bevorzugt | 

— patent EP1621631A1, “Method for the production of C6 and/or C9 aldehydes and alcohols in plants by 9/13 divinyl ether synthase” (Georg-August-Universität Göttingen, priority 2004, dated 2006)
